Results on two compounds are retold here after patent publication US9770409B2, “Aerosol formulations of ondansetron and uses thereof” (LUXENA PHARMACEUTICALS, INC., priority 2013, dated 2017).

Each structure is given as a SMILES string. ≈ marks a conversion by molar mass, not a printed value. Where “and” joins values, the source holds several entries; their conditions need not be identical. Identical values can stand only once. Like-named read-outs stand apart in the source and are kept apart here.

The nature of series [1]: Particle size distribution of spray dried ondansetron fine powder by Malvern Mastersizer. The class given is physicochemical. As to conditions: typical particle size distribution. On the procedure: The Particle Size Distribution of the Ondansetron Fine Powder, prepared by Spray Drying using the above parameters was measured by Malvern Mastersizer (Malvern Instruments, UK) at GEA Process Engineering, Inc., Columbia, Md., USA.

The nature of series [2]: Solubility of ondansetron in pMDI medium. It counts as physicochemical. As to conditions: for solubility at 8 days: organic solvent or mixture, thermodynamic from solid. On the procedure: The solubility of ondansetron was measured in a pMDI medium of HFA 134 as well as a mixture of HFA 134 and ethanol.
Where [3] appears, read: HFA 134a with Ethanol (9:1), 8 days.

In the case of `Cc1nccn1CC1CCc2c(c3ccccc3n2C)C1=O` (stereo not shown) [Ondansetron Fine Powder, ondansetron], in series [1], the “Cumulative % on <10 μm” value stood at 99.5%, the D10 is 3.23 μm, the D50 is listed as 5.01 μm and the D90 is on record as 7.22 μm. The “Mean Size” value in series [1] was determined as 4.80 μm.

Consider `Cc1nccn1CC1CCc2c(c3ccccc3n2C)C1=O` (stereo not shown) [ondansetron], for which the solubility at 8 days is 37.8 µg/mL (≈ 129 µM) in series [2] (HFA 134a (pMDI medium), HFA 134a alone, read-out: Solubility in HFA 134a, Average (RSD)); 34.7 µg/mL (≈ 118 µM) in series [2] (HFA 134a (pMDI medium), HFA 134a alone, read-out: Solubility in HFA 134a, single determinations); 202 µg/mL (≈ 688 µM) in series [2] (HFA 134a with ethanol (9:1) (pMDI medium), HFA 134a with Ethanol (9:1), read-out: Solubility in HFA 134a with Ethanol (9:1), Average (RSD)); 199 µg/mL (≈ 680 µM) in series [2] (HFA 134a with ethanol (9:1) (pMDI medium), HFA 134a with Ethanol (9:1), read-out: Solubility in HFA 134a with Ethanol (9:1), single determinations). The “Solubility in HFA 134a, single determinations” value in series [2] (HFA 134a alone, 8 days) is 35.97 µg/mL and 40.27 µg/mL and 40.26 µg/mL. In addition, the “Solubility in HFA 134a as % w/w” value in series [2] (HFA 134a alone, 8 days, from gravity of HFA 134a 1.21 g/mL) is 0.00312 % w/w. In addition, in series [2] (setting [3]), the “Solubility in HFA 134a with Ethanol (9:1) as % w/w” value is given as 0.01668 % w/w. The “Solubility in HFA 134a with Ethanol (9:1), single determinations” value in series [2] (setting [3]) was 196.85 µg/mL and 215.75 µg/mL and 195.17 µg/mL.

A word on the solubility: it is the concentration that dissolves in the medium under given conditions.
